Values joined by “and” are separate entries in the source; they are usually repeats but may differ in a detail not shown here. Equal values may be shown once.
Key:
WWP2-FL = molecular target: T1, WWP2-FL (Homo sapiens, UniProt O00308); assay: WWP2 ELISA autoubiquitination assay; format: biochemical; details: for relative activity, single-shot autoubiquitination: 1 mM compound, hit threshold less than 50% relative activity; for relative autoubiquitination activity, single-shot: 500 µM compound, normalised to 0% and 100% controls
T1 construct: full-length WWP2 (WWP2-FL); made in house; host or cells: E. coli BL21-CodonPlus RP (plasmid pGEX2T-WWP2-FL, Dr Andrew Chantry's Lab)
Protocol: (§1) Cell lysate containing His-tagged WWP1-L34H or GST-tagged WWP2-FL proteins were incubated on either 96-well Clear Pierce glutathione or nickel-coated plates for 1 h in PBS. Reaction mixtures of either 3 ng/well GST-Uba1 and 15 ng/well UbcH7 or 10 ng/well His-Uba1 and 150 ng/well His-UbcH7 were incubated together in 25 mM Tris pH 8.0, 100 mM NaCl, 4 mM MgCl2 containing 60 ng/well FLAG-ubiquitin and 1.25 mM ATP for 40 min. A prior 1% BSA plate blocking step is required for nickel-coated plates. After plate washing, 2 μL of the compound was added at the desired concentration (0.1 – 1% DMSO) followed by 18 μL of the reaction mixture. This was then incubated for 2 h with 0% and 100% controls before 100 μL of anti-FLAG M2-Peroxidase HRP (1: 10,000 PBST) was added to each well and incubated for 1 h. Finally, 100 μL of 1 × TMB substrate solution (Invitrogen) was added to each well and incubated for up to 10 min until sufficient blue colour change was observed. To stop the reaction, 100 μL of 1 M HCl was added. GST-tagged Uba1 counter-assay followed a similar protocol first incubating cell lysate for 1 h before adding 20 µL of reaction mixture containing 60 ng/well FLAG-ubiquitin, 1.25 mM ATP, and 1 mM compound at 1% DMSO. His-tagged UbcH7 counter-assays preincubated 3 ng/well GST-Uba1 and 200 ng/well UbcH7 with the reaction mixture components (60 ng/well FLAG-ubiquitin, 1.25 mM ATP, and 1 mM compound at 1% DMSO) for 1 h before incubating onto nickel-coated plates for a further 1 h. All other steps were followed. The plates were washed three times with PBST (and 15 mM Imidazole) between each step. Quantification was measured by absorbance read at 450 nm, standardised to the 0% and 100% activity controls. A visual representation of the assay steps is shown in SI Figure S13. All assay optimisations have been previously reported by Watt and colleagues. IC50 non-linear regression curves were calculated in GraphPad v10.2 (Prism).
(§2) The DSF hit compounds were initially screened using a single-shot WWP1 and WWP2 ELISA autoubiquitination assay at 500 µM compound (1% DMSO), measuring inhibition against their relative autoubiquitination activity following protocols previously described. […] Four NSC compounds for WWP1 (13151, 73735, 85433 & 637578) and three NSC compounds for WWP2 (26112, 57103 & 217913) were initially selected having a threshold of less than 50% relative activity when compared to 0% and 100% controls (Figure 2).
(§3) The resulting synthesised analogues were screened using the single-shot ELISA autoubiquitination assay at 1 mM compound concentration (1% DMSO) before IC50 values were calculated for hit compounds (SI Figure 2–4).
ELISA Autoubiquitination Assay
Figure S13. Schematic diagram of the WWP2 ELISA autoubiquitination assay. (1a) Immobilisation of GST-Tagged WWP2 on glutathione coated plates. The GST-tagged (green) WWP2-FL (orange) is bound to glutathione (black), further linked via an SSMPB linker (pink) bound to haemoglobin (red). (1b) Reaction mixture of His-E1, His-E2 and flag-tagged Ub. Flag-tagged (red) Ub (dark pink) is first charged to Uba1/E1 (light pink) using ATP (blue) and then transferred to UbcH7/E2 (light brown).
(2) Ub charged E2 incubation with immobilised WWP2. UbcH7/E2 transfers flag-tagged Ub to WWP2 before WWP2 auto-ubiquitination occurs in the absence or presence of compounds (blue). (3) Incubation of recombinant HRP anti-flag antibody with auto-ubiquitinated WWP2. Anti-flag antibody (purple) containing recombinant HRP (orange) associates with the flag-tagged Ub. (4) HRP-mediated oxidation of TMB.
Single-electron oxidation of TMB by HRP in the presence of HO creates first a blue colour change, before acidification results in a yellow colour change (450 nm) stopping

WWP1-L34H = molecular target: T2, WWP1-L34H (Homo sapiens, UniProt Q9H0M0); assay: WWP1 ELISA autoubiquitination assay; format: biochemical; details: for relative activity, single-shot autoubiquitination: 1 mM compound, hit threshold less than 50% relative activity; for relative autoubiquitination activity, single-shot: 500 µM compound, normalised to 0% and 100% controls
T2 construct: WWP1- 2,3-linker-WW3-WW4-HECT (WWP1-L34H); made in house; host or cells: E. coli BL21-CodonPlus RP (plasmid pET32a-WWP1-L34H, gifted by Dr Wenyu Wen)
Protocol: as §1, §2, §3

UbcH7 = molecular target: T3, UbcH7 (Homo sapiens, UniProt P68036); assay: UbcH7 counter autoubiquitination assay; format: biochemical; details: 1 mM compound, 1% DMSO, in Table S6 73735 and 217913 synthesised
T3 construct: made in house; host or cells: E. coli BL21-CodonPlus RP (plasmid pET3a-UbcH7 His, gifted by Professor Martin Scheffner)
Protocol: as §1
These preliminary hit compounds were further screened in dose-dependent ELISA autoubiquitination assays from 500 µM − 5 nM, with three NSC compounds for WWP1 (13151, 73735 & 85433) and only two NSC compounds for WWP2 (57103 & 217913) showing a dose-response (SI Table S4). […] To ensure the intended target was being inhibited and not the […] Uba1 (E1) and UbcH7 (E2) enzymes used in the catalytic cascade of the assay, a counter autoubiquitination screen was utilised. Upon counter-activity analysis, only with NSC-217913 did UbcH7 retain more than 90% activity and so this was selected as the sole validated hit compound from our inhibition screen (SI Table S6).

[1] = sample used directly from the NCI library, dose range 500 µM - 5 nM
[2] = synthesised compound, WWP1-L34H, 1% DMSO, 95% CI range in brackets
[3] = synthesised compound, WWP2-FL, 1% DMSO, 95% CI range in brackets

T1 sequence (O00308 whole entry): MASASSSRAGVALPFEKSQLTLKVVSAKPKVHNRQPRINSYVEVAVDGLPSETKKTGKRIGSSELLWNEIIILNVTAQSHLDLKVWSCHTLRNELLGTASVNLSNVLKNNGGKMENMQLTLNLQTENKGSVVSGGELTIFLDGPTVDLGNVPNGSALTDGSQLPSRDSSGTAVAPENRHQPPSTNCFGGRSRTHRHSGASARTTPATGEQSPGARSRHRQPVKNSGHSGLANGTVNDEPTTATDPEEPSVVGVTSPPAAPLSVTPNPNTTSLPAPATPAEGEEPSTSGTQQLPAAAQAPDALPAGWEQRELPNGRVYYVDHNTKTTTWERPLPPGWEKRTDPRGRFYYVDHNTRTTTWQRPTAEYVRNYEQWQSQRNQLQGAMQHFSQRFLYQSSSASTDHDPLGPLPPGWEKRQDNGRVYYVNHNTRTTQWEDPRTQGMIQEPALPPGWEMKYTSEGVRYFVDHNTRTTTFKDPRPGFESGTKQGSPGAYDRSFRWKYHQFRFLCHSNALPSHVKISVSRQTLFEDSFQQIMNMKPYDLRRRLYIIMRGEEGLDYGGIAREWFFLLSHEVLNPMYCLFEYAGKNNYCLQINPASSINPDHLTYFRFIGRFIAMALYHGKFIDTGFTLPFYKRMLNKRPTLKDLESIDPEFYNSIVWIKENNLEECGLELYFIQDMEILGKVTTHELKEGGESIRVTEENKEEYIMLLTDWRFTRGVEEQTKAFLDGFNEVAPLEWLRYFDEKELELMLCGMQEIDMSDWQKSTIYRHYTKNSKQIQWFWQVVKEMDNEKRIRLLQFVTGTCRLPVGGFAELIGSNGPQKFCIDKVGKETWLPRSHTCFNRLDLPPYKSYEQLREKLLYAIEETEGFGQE
T3 sequence (P68036 whole entry): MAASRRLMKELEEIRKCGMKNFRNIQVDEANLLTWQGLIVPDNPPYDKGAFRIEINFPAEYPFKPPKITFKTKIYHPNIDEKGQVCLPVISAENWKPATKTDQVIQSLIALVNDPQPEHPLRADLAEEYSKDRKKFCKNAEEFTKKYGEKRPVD

CCOC(=O)CNC(=O)CSc1nc2nc(Cl)c(Cl)nc2[nH]1 [Compound 12, Ethyl 2-({5,6-dichloro-1H-imidazo[4,5-b]pyrazine-2-yl}sulfanyl)acetamidoacetate]
relative activity, single-shot autoubiquitination (WWP2-FL; 1% DMSO): better single-shot data
relative activity, single-shot autoubiquitination (WWP1-L34H; 1% DMSO): better single-shot data

CCOC(=O)CSc1nc2cncnc2[nH]1 [Compound 21, Ethyl 2-({9H-imidazo[4,5-d]pyrimidine}sulfan-8-yl)acetate]
relative activity, single-shot autoubiquitination (WWP1-L34H; 1% DMSO): reducing relative activity

Nc1nc2nc(Br)cnc2s1 [Compound 26, 5-bromothiazolo[4,5-b]pyrazine-2-amine]
relative activity, single-shot autoubiquitination (WWP2-FL; 1% DMSO): some decrease in activity

CCOC(=O)Cc1cn2cc(Cl)ncc2n1 [Compound 2, Ethyl 6-chloroimidazo[1,2-a]pyrazine-2-acetate]
relative activity, single-shot autoubiquitination (WWP2-FL; 1% DMSO): some decrease in activity

CCOC(=O)Cc1cn2cc(Cl)nc(Cl)c2n1 [Compound 4, Ethyl 6,8-Dichloroimidazo[1,2-a]pyrazine-2-acetate]
relative activity, single-shot autoubiquitination (WWP2-FL; 1% DMSO): some decrease in activity

Cc1ccc(C=C2C(Cl)=C(Cl)C(Cl)=C2Cl)cc1 [NSC-26112]
relative autoubiquitination activity, single-shot (WWP2-FL; 1% DMSO): less than 50%

O=C(O)CNC(=O)CSc1nc2nc(Cl)c(Cl)nc2[nH]1 [Compound 16, 2-({5,6-dichloro-1H-imidazo[4,5-b]pyrazine-2-yl}sulfanyl)acetamidoacetic acid]
relative activity, single-shot autoubiquitination (WWP2-FL; 1% DMSO): better single-shot data
relative activity, single-shot autoubiquitination (WWP1-L34H; 1% DMSO): better single-shot data

CCOC(=O)CSc1nc2nc(Cl)c(Cl)nc2[nH]1 [Compound 6, Ethyl 2-({5,6-dichloro-1H-imidazo[4,5-b]pyrazine-2-yl}sulfanyl)-acetate]
UbcH7 Activity (UbcH7): 92.2 ± 1.1%
UbcH7 Activity (UbcH7; listed as NSC-217913): more than 90%
relative autoubiquitination activity, single-shot (WWP2-FL; 1% DMSO): less than 50%
IC50 (WWP2-FL; [1]): < 100 µM and 69.8 µM
WWP2 IC50 (WWP2-FL; synthesised compound, WWP2-FL, 1% DMSO, 95% CI range in brackets, listed as 6/217913): Unstable^a
WWP2 IC50 (WWP2-FL; synthesised compound, WWP2-FL, 1% DMSO, 95% CI range in brackets, listed as NSC-217913): too weak to determine accurately
IC50 (WWP1-L34H; [1]): 33.3 µM
IC50 (WWP1-L34H; [2]): 158 µM

CCOC(=O)CSc1nc2nc(Cl)cnc2[nH]1 [Compound 5, Ethyl 2-({5-chloro-1H-imidazo[4,5-b]pyrazine-2-yl}sulfanyl)acetate]
relative activity, single-shot autoubiquitination (WWP2-FL; 1% DMSO): some decrease in activity

COc1cc(-c2ccc(Nc3ccccc3C(=O)O)c(OC)c2)ccc1Nc1ccccc1C(=O)O [NSC-73735]
UbcH7 Activity (UbcH7): 62.5 ± 2.4%
IC50 (WWP2-FL; [1]): 49.1 µM
relative autoubiquitination activity, single-shot (WWP1-L34H; 1% DMSO): less than 50%

O=[N+]([O-])c1cc([N+](=O)[O-])c2cccnc2c1O [NSC-57103]
relative autoubiquitination activity, single-shot (WWP2-FL; 1% DMSO): less than 50%
IC50 (WWP2-FL; [1]): 513 µM

CCc1oc2ccccc2c1C(=O)c1cc(Br)c(O)c(Br)c1 [NSC-85433]
UbcH7 Activity (UbcH7): 7.5 ± 0.6%
IC50 (WWP2-FL; [1]): 256 µM
relative autoubiquitination activity, single-shot (WWP1-L34H; 1% DMSO): less than 50%
IC50 (WWP1-L34H; [1]): < 100 µM and 92.4 µM

CCOC(=O)CSc1nc2nccnc2[nH]1 [Compound 20, Ethyl 2-({1H-imidazo[4,5-b]pyrazine}sulfanyl-2-yl)acetate]
relative activity, single-shot autoubiquitination (WWP1-L34H; 1% DMSO): reducing relative activity

N#CCSc1nc2nc(Cl)c(Cl)nc2[nH]1 [Compound 7, 2-({5,6-Dichloro-1H-imidazo[4,5-b]pyrazine-2-yl}sulfanyl)acetonitrile]
UbcH7 Activity (UbcH7): 94.2 ± 0.8%
IC50 (WWP2-FL; [3]): 856 µM
WWP2 IC50 (WWP2-FL; [3]): only limited inhibition

CCCC(C)Sc1nc2nc(Cl)c(Cl)nc2[nH]1 (stereo not drawn) [Compound 8, 2-({5,6-dichloro-1H-imidazo[4,5-b]pyrazine-2-yl}sulfanyl)pentane]
relative activity, single-shot autoubiquitination (WWP2-FL; 1% DMSO): rather small decrease in relative activity
relative activity, single-shot autoubiquitination (WWP1-L34H; 1% DMSO): rather small decrease in relative activity

COC(=O)[C@H](COC(C)(C)C)NC(=O)CSc1nc2nc(Cl)c(Cl)nc2[nH]1 [Compound 14, Methyl 3-(tert-butoxy)-2(S)-[2-({5,6-dichloro-1H-imidazo[4,5-b]pyrazine-2-yl}sulfanyl)acetamido]propionate]
relative activity, single-shot autoubiquitination (WWP2-FL; 1% DMSO): rather small decrease in relative activity
relative activity, single-shot autoubiquitination (WWP1-L34H; 1% DMSO): rather small decrease in relative activity

O=C(O)CCSc1nc2nc(Cl)c(Cl)nc2[nH]1 [Compound 13, 3-({5,6-Dichloro-1H-imidazo[4,5-b]pyrazine-2-yl}sulfanyl)propionic acid]
IC50 (WWP2-FL; [3]): 603 µM
relative activity, single-shot autoubiquitination (WWP1-L34H; 1% DMSO): failed to reach the activity threshold

Ethyl 2-[({imidazo[4,5-c]pyridine}sulfan-2-yl-5N-(ethyl-2-acetate))]acetate [Compound 23]
relative activity, single-shot autoubiquitination (WWP1-L34H; 1% DMSO): reducing relative activity

NC(=Nc1nc(-c2ccccn2)cc2ccccc12)c1ccccn1 [NSC-637578]
relative autoubiquitination activity, single-shot (WWP1-L34H; 1% DMSO): less than 50%

O=C(CSc1nc2nc(Cl)c(Cl)nc2[nH]1)N[C@@H](CO)C(=O)O [Compound 17, 3-hydroxy-2(S)-[({5,6-dichloro-1H-imidazo[4,5-b]pyrazine-2-yl}sulfanyl)acetamido]propanoic acid]
UbcH7 Activity (UbcH7): 88.8 ± 0.7%

O=C(CSc1nc2nc(Cl)c(Cl)nc2[nH]1)N1CCOCC1 [Compound 9, 2-({5,6-dichloro-1H-imidazo[4,5-b]pyrazine-2-yl}sulfanyl)acetylmorpholine]
IC50 (WWP2-FL; [3]): 622 µM
relative activity, single-shot autoubiquitination (WWP1-L34H; 1% DMSO): failed to reach the activity threshold

O=C(/C=C/c1ccccc1Cl)c1ccc(O)cc1 [NSC-13151]
relative autoubiquitination activity, single-shot (WWP1-L34H; 1% DMSO): less than 50%
IC50 (WWP1-L34H; [1]): 397 µM

O=C(O)CSc1nc2nc(Cl)c(Cl)nc2[nH]1 [Compound 15, ({5,6-dichloro-1H-imidazo[4,5-b]pyrazine-2-yl}sulfanyl)acetic acid]
melting point: 219.1 to 220.7 °C
UbcH7 Activity (UbcH7): 93.0 ± 1.0%
IC50 (WWP2-FL; [3]): 666 µM
WWP2 IC50 (WWP2-FL; [3]): only weakly
IC50 (WWP1-L34H; [2]): 375 µM

CCCC(=O)CSc1nc2nc(Cl)c(Cl)nc2[nH]1 [Compound 10]
relative activity, single-shot autoubiquitination (WWP2-FL; 1% DMSO): rather small decrease in relative activity
relative activity, single-shot autoubiquitination (WWP1-L34H; 1% DMSO): rather small decrease in relative activity

From PMC11373361, “Expanding the inhibitor space of the WWP1 and WWP2 HECT E3 ligases” (Journal of Enzyme Inhibition and Medicinal Chemistry, 2024)
